What was measured:
Format in all cases: cell-based, human
[1] = system: CD4, hMR, CCR1, D6 on U87MG; assay: HIV receptor and chemokine co-receptor expression on U87MG by flow cytometry
Protocol: (§1) U87MG (A) and HFA (B) were left untreated or treated GM-CSF (50 ng/ml) or IFNγ (100 ng/ml) for 24 h. Expression of receptors on the x-axis was measured by flow cytometry. Isotype refers to mouse IgG. Data is representative of three experiments. Error bars represent standard deviation of the mean. (C). IFNγ up-regulates D6 on U87MG cells. U87MG were left untreated or treated with IFNγ. After 3 days, the cells were immunostained with anti-D6 or isotype antibodies. The first histogram (peak) represents isotype control; the dark shaded histogram represents untreated cultures, and the third histogram (peak) represents IFNγ-treated cultures. Data is typical of quadruplet experiments.
(§2) Because IFNγ was a potent cytokine in inducing HIV infection of astrocytes, it was determined whether IFNγ treatment modulated key HIV receptors CD4, human mannose receptor D6 and co-receptors (CCR1, CCR2, CCR3, CXCR4, and CCR5) for HIV infection. U87MG is human mannose receptor (hMR) […] (FIG. 5). However, hMR was not detected on HFA, which may be regulated by the differentiation stage of the HFA (FIG. 5 (B)). CD4 and hMR expression in both U87MG and HFA was not augmented by IFNγ or GM-CSF (FIG. 5(A)-(B)). […] HFA were positive for CXCR4 (12%), but its expression was not augmented by GM-CSF or IFNγ treatment (FIG. 5B). IFNγ was reported to enhance CXCR4 and CCR5 expression on simian adult astrocytes, which is in contrast to data on human fetal astrocytes highlighting a discrepancy between simian adult and human fetal astrocytes. […] Infection of U87MG and HFA with a T-tropic isolate (IIIB), while it was productive, was not enhanced by cytokine pre-treatment. This may be a consequence of the laboratory adapted HIV IIIB, therefore primary T-tropic or dual tropic strains may still be responsive to IFNγ pre-treatment of astrocytes. Recently, the CC chemokine receptor D6 was identified as a functional co-receptor for primary HIV infection of astrocytes.

TCF-4 / Wnt signaling = assay: TOPflash luciferase reporter (Wnt signaling) in U87MG; conditions: IFNγ treated, 24 hrs post-transfection
Protocol: FIG. 11 Impact of IFN-γ on Wnt signaling. U87MG cells were left untreated or treated with IFN-γ for 24 hrs and then transfected with either TOPflash (containing four native TCF/LEF binding sites) and Renilla constructs or GFP and Renilla constructs. Transfected cells were then cultured with or without their initial treatment (with or without IFN-γ). Luciferase relative light activity (relative light units) was measured 24 hrs later using a luminometer and normalized to Renilla activity. Data are based on at least three experiments and are presented as the increase (n-fold) in luciferase relative light units over Renilla ±standard deviation.
Wnt signaling in astrocytes and its inhibition by IFNγ was investigated: Although inhibiting TCF-4 with a dominant negative mutant stresses the importance of active TCF-4 in restricting HIV replication, it is not informative regarding the mechanism by which IFNγ overcomes astrocyte restriction to productive HIV replication. […] Luc activity was measured 24 hrs post-transfection TCF-4 reporter construct is an indicator of basal and inducible levels of Wnt signaling.
Active Wnt signaling in astrocytes and its inhibition by IFN-γ. […] Basal TCF-4 activity was detected in astrocytes, indicating active Wnt signaling in human astrocytes (FIG. 11). […]

[2] = system: IFNγ, GM-CSF and TNFγ receptors on U87MG; assay: Cytokine receptor expression on U87MG by flow cytometry; conditions: 24-hour treatment
Protocol: U87MG (A) or HFA (B) were left untreated or treated with GM-CSF (50 ng/ml), IFNγ100 ng/ml) or TNFγ100 ng/ml). […] Percent expression of GM-CSF receptor (R), IFNγR, and TNFγR was measured 24 hours post-stimulation by flow cytometry. Data is representative of three experiments. Error bars represent standard deviations of the mean.
Prior to evaluating if GM-CSF, IFNγ, and TNFγ can augment HIV replication of astrocytes, a question was whether U87MG and HFA express the respective cytokine receptors. U87MG and HFA were treated with or without the respective cytokine for 24 hours and cytokine receptor expression was evaluated by flow cytometry. Approximately 35% of U87MG expressed the IFNγ receptor and a low level of GM-CSF and TNFγ receptors (<8%; FIG. 3A). […] Untreated HFA expressed only low levels of IFNγ receptor (6%) and this expression was abrogated with IFNγ treatment. GM-CSF and TNFγ receptors were not expressed on HFA.

CD4, hMR, CXCR4 on HFA = assay: HIV receptor and chemokine co-receptor expression on HFA by flow cytometry
Protocol: as §1, §2

With “IFNγ: cytokine secreted by lymphocytes, activated microglia and astrocytes; used to prime astrocytes” the “CD4 and hMR expression” value [1] was “not augmented”, the “Up-regulation of CCR1 expression” value ([1]; 24 h treatment) was 4 fold and the “Up-regulation of D6 expression” value ([1]; 3 days) was 6 fold. The “Reduction of basal Wnt signaling (TOPflash luciferase)” value (TCF-4 / Wnt signaling) was “approximately 50%”, the “Down-regulation of IFNγ receptor expression” value [2] was 2 fold and the “IFNγ receptor expression after treatment” value ([2]; untreated approximately 35%) was “approximately 15%”. The “CD4 and hMR expression” value (CD4, hMR, CXCR4 on HFA) was “not augmented” and the CXCR4 expression (CD4, hMR, CXCR4 on HFA; untreated 12%) was “not augmented”.
